Molecular target: hDGAT2 (Homo sapiens (Human), UniProt Q96PD7)
Assay: DGAT2 Enzymatic Activity Assay
Assay type: biochemical
Conditions: hDGAT2 Sf-9 membrane prep; 25 μM diolein, 10 μM oleoyl-CoA; triolein product by LC/MS/MS; read-out: IC50 values for inhibition of DGAT2
Summary of the method: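 Membranes from Sf-9 cells expressing untagged hDGAT2 (10 ng/μL) incubated at room temperature with 25 μM diolein and 10 μM oleoyl-CoA in 100 mM Tris pH 7.0, 20 mM MgCl2, 5% ethanol. Triolein product quantified by LC/MS/MS against spiked internal standard; IC50 from 4-parameter sigmoidal fit.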

Sequence of hDGAT2 (Q96PD7 whole entry): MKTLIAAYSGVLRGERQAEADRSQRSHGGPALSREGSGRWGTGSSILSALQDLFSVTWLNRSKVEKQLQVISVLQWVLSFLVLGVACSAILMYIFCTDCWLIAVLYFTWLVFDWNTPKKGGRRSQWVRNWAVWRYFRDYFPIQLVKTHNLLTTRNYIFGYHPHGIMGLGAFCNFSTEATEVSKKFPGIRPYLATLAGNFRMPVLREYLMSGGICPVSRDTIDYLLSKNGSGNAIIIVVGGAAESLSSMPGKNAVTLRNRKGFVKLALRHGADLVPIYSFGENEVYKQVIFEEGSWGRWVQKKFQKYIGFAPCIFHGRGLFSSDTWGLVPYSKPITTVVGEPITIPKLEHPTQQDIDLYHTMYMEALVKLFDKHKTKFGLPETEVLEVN

Row | IC50 [nM] | Compound
1 | 632 | COC(=O)c1cccc(-c2ccc(CNC(=O)C3CC3c3ccccc3)c3c2CCN(C(=O)c2c[nH]nc2C2CC2)C3)c1 (centres unmarked) [Example 121, methyl 3-(2-(3-cyclopropyl-1H-pyrazole-4-carbonyl)-8-((2-phenylcyclopropanecarboxamido)methyl)-1,2,3,4-tetrahydroisoquinolin-5-yl)benzoate]
2 | 5500 | COC(=O)c1cccc(-c2ccc(CNC(=O)C3CC3c3ccccc3)c3c2CCN(C(=O)c2cnoc2C(C)C)C3)c1 (centres unmarked) [Example 122, methyl 3-(2-(5-isopropylisoxazole-4-carbonyl)-8-((2-phenylcyclopropanecarboxamido)methyl)-1,2,3,4-tetrahydroisoquinolin-5-yl)benzoate]
3 | 1320 | COC(=O)c1cccc(-c2ccc(CNC(=O)C3CC3c3ccccc3)c3c2CCN(C(=O)C2(C(F)(F)F)CC2)C3)c1 (centres unmarked) [Example 123, methyl 3-(8-((2-phenylcyclopropanecarboxamido)methyl)-2-(1-(trifluoromethyl)cyclopropanecarbonyl)-1,2,3,4-tetrahydroisoquinolin-5-yl)benzoate]
4 | 5490 | COC(=O)c1cccc(-c2ccc(CNC(=O)C3CC3c3ccccc3)c3c2CCN(C(=O)c2cccc(-n4cccc4)c2)C3)c1 (centres unmarked) [Example 124, methyl 3-(2-(3-(1H-pyrrol-1-yl)benzoyl)-8-((2-phenylcyclopropanecarboxamido)methyl)-1,2,3,4-tetrahydroisoquinolin-5-yl)benzoate]
5 | 209 | COC(=O)c1cccc(-c2ccc(CNC(=O)C3CC3c3ccccc3)c3c2CCN(C(=O)CC2CC2)C3)c1 (centres unmarked) [Example 125, methyl 3-(2-(2-cyclopropylacetyl)-8-((2-phenylcyclopropanecarboxamido)methyl)-1,2,3,4-tetrahydroisoquinolin-5-yl)benzoate]
6 | 1770 | COCCC(=O)N1CCc2c(-c3cccc(C(=O)OC)c3)ccc(CNC(=O)C3CC3c3ccccc3)c2C1 (centres unmarked) [Example 126, methyl 3-(2-(3-methoxypropanoyl)-8-((2-phenylcyclopropanecarboxamido)methyl)-1,2,3,4-tetrahydroisoquinolin-5-yl)benzoate]
7 | 1220 | COC(=O)c1cccc(-c2ccc(CNC(=O)C3CC3c3ccccc3)c3c2CCN(C(=O)CCC(F)(F)F)C3)c1 (centres unmarked) [Example 127, methyl 3-(8-((2-phenylcyclopropanecarboxamido)methyl)-2-(4,4,4-trifluorobutanoyl)-1,2,3,4-tetrahydroisoquinolin-5-yl)benzoate]
8 | 1590 | COC(=O)c1cccc(-c2ccc(CNC(=O)C3CC3c3ccccc3)c3c2CCN(C(=O)C2(C#N)CC2)C3)c1 (centres unmarked) [Example 128, methyl 3-(2-(1-cyanocyclopropanecarbonyl)-8-((2-phenylcyclopropanecarboxamido)methyl)-1,2,3,4-tetrahydroisoquinolin-5-yl)benzoate]
9 | 1820 | COC(=O)c1cccc(-c2ccc(CNC(=O)C3CC3c3ccccc3)c3c2CCN(C(=O)CC(F)(F)F)C3)c1 (centres unmarked) [Example 129, methyl 3-(8-((2-phenylcyclopropanecarboxamido)methyl)-2-(3,3,3-trifluoropropanoyl)-1,2,3,4-tetrahydroisoquinolin-5-yl)benzoate]
10 | 281 | COC(=O)c1cccc(-c2ccc(CNC(=O)C3CC3c3ccccc3)c3c2CCN(C(=O)C(C)C)C3)c1 (centres unmarked) [Example 130, methyl 3-(2-isobutyryl-8-((2-phenylcyclopropanecarboxamido)methyl)-1,2,3,4-tetrahydroisoquinolin-5-yl)benzoate]
11 | 360 | COC(=O)c1cccc(-c2ccc(CNC(=O)C3CC3c3ccccc3)c3c2CCN(C(=O)C2CC2C)C3)c1 (centres unmarked) [Example 131, methyl 3-(2-(2-methylcyclopropanecarbonyl)-8-((2-phenylcyclopropanecarboxamido)methyl)-1,2,3,4-tetrahydroisoquinolin-5-yl)benzoate]
12 | 522 | COC(=O)c1cccc(-c2ccc(CNC(=O)C3CC3c3ccccc3)c3c2CCN(C(=O)C2(C)CC2)C3)c1 (centres unmarked) [Example 132, methyl 3-(2-(1-methylcyclopropanecarbonyl)-8-((2-phenylcyclopropanecarboxamido)methyl)-1,2,3,4-tetrahydroisoquinolin-5-yl)benzoate]
13 | 2510 | COC(=O)c1cccc(-c2ccc(CNC(=O)C3CC3c3ccccc3)c3c2CCN(C(=O)c2ccncc2)C3)c1 (centres unmarked) [Example 133, methyl 3-(2-isonicotinoyl-8-((2-phenylcyclopropanecarboxamido)methyl)-1,2,3,4-tetrahydroisoquinolin-5-yl)benzoate]
14 | 3560 | COC(=O)c1cccc(-c2ccc(CNC(=O)C3CC3c3ccccc3)c3c2CCN(C(=O)c2cccnc2)C3)c1 (centres unmarked) [Example 134, methyl 3-(2-nicotinoyl-8-((2-phenylcyclopropanecarboxamido)methyl)-1,2,3,4-tetrahydroisoquinolin-5-yl)benzoate]
15 | 2170 | CCOCC(=O)N1CCc2c(-c3cccc(C(=O)OC)c3)ccc(CNC(=O)C3CC3c3ccccc3)c2C1 (centres unmarked) [Example 136, methyl 3-(2-(2-ethoxyacetyl)-8-((2-phenylcyclopropanecarboxamido)methyl)-1,2,3,4-tetrahydroisoquinolin-5-yl)benzoate]
16 | 3340 | COC(=O)c1cccc(-c2ccc(CNC(=O)C3CC3c3ccccc3)c3c2CCN(C(=O)C2CCC(C)CC2)C3)c1 (centres unmarked) [Example 137, methyl 3-(2-(4-methylcyclohexanecarbonyl)-8-((2-phenylcyclopropanecarboxamido)methyl)-1,2,3,4-tetrahydroisoquinolin-5-yl)benzoate]
17 | 176 | COC(=O)c1cccc(-c2ccc(CNC(=O)C3CC3c3ccccc3)c3c2CCN(C(=O)c2ccccc2)C3)c1 (centres unmarked) [Example 138, methyl 3-(2-benzoyl-8-((2-phenylcyclopropanecarboxamido)methyl)-1,2,3,4-tetrahydroisoquinolin-5-yl)benzoate]
18 | 219 | COC(=O)c1cccc(-c2ccc(CNC(=O)C3CC3c3ccccc3)c3c2CCN(C(=O)c2ccccc2F)C3)c1 (centres unmarked) [Example 139, methyl 3-(2-(2-fluorobenzoyl)-8-((2-phenylcyclopropanecarboxamido)methyl)-1,2,3,4-tetrahydroisoquinolin-5-yl)benzoate]
19 | 1530 | COC(=O)c1cccc(-c2ccc(CNC(=O)C3CC3c3ccccc3)c3c2CCN(C(=O)c2cccc(F)c2)C3)c1 (centres unmarked) [Example 140, methyl 3-(2-(3-fluorobenzoyl)-8-((2-phenylcyclopropanecarboxamido)methyl)-1,2,3,4-tetrahydroisoquinolin-5-yl)benzoate]
20 | 279 | COC(=O)c1cccc(-c2ccc(CNC(=O)C3CC3c3ccccc3)c3c2CCN(C(=O)c2ccc(F)cc2)C3)c1 (centres unmarked) [Example 141, methyl 3-(2-(4-fluorobenzoyl)-8-((2-phenylcyclopropanecarboxamido)methyl)-1,2,3,4-tetrahydroisoquinolin-5-yl)benzoate]
